Measurements from patent US20170119806A1, “[…] LACTONE DERIVATIVES AND METHODS OF MAKING AND USING THEREOF” (OHIO STATE INNOVATION FOUNDATION, priority 2014, published 2017).

System: C3-3P NF-κB p65 binding site of the IFNG promoter
Assay: EMSA and ChIP of p65 binding to the IFNG promoter
Type: cell-based, human
Conditions: 10 μM PL-C with IL-12 (10 ng/mL), 12 h, ChIP
Procedure: (A) Schematic of IFNG promoter potential binding sites for p65 (45). (B) NK cells purified from healthy donors were treated with 10 μM PL-C or DMSO vehicle control in the presence of IL-12 (10 ng/mL) for 12 h. Cell pellets were harvested for nuclear extraction, followed by EMSA with a ^32P-labeled oligonucleotide containing the C3-3P NF-κB p65 binding site of the IFNG promoter. Data shown represent one of three donors with similar results. (C) Cells were treated as described in (B), and the cell pellets were harvested to extract protein for ChIP assay of p65 binding to the IFNG promoter locus C3-3P. Mean of relative association of p65 at the IFNG promoter locus C3-3P from three independent experiments is shown. *p<0.05, compared with cells treated with IL-12 alone. Error bars represent S.D.
EMSA. Nuclear extracts were isolated using a nuclear extract kit, according to the manufacturer's instruction (Active Motif, Carlsbad, Calif.). EMSA was performed as described previously (Bachmeyer C et al. Nucleic Acids Res, 1999, 27, 643-648). […]
Chromatin immunoprecipitation. […] DNA precipitated by the anti-p65 or the normal IgG Abs was quantified by real-time PCR, and values were normalized to input DNA.

Structure (SMILES): COc1cc2c(OC3OCC(O)C(O)C3O)c3c(c(-c4ccc5c(c4)OCO5)c2cc1OC)C(=O)OC3 (stereo not shown) [Compound 4, Phyllanthusmin C]
- p65 binding to the C3-3P site of the IFNG promoter: enhanced p65 binding to the C3-3P binding site
